# Source: US10399961B2, “Heteroarylcarboxamide derivatives as plasma kallikrein inhibitors” (Boehringer Ingelheim International GmbH, priority 2015, dated 2019)
# Target: human Plasma Kallikrein (KLKB1) (Homo sapiens (Human), UniProt P03952)
# Assay: Inhibition of KLKB1 endpoint assay
# Assay type: biochemical
# Details: fluorogenic substrate H-Pro-Phe-Arg-AMC, 1 hr at Room Temperature, read-out: IC50 measurements for the inhibition of human Plasma Kallikrein (KLKB1)
# Experimental: The ability of compounds of Formula I to inhibit plasma kallikrein (KLKB1), Factor XIIa (FXIIa), Factor XIa (FXIa), Factor Xa (FXa), Factor IIa (alpha-thrombin; FIIa), plasmin, trypsin, tissue kallikrein 1 (KLK1), Factor VIIa (FVIIa), or FVIIa complexed with Tissue Factor, phospholipids and CaCl2 (FVIIa/TF/PL/CaCl2) was determined using the following biochemical assays in assay buffer (100 mM Tris, 150 mM NaCL, adjusted to a pH of 7.8 with HCl, and containing 0.1% (w/v) BSA and 0.05% (v/v) Tween20) in the presence of 1% (v/v) DMSO:
# Subsequently, PPACK II (Calbiochem) was added as a stop solution to achieve a final concentration of 1 μM and fluorescence was measured using an Envision Reader (PerkinElmer) with the wavelength excitation setting of 355 nm and the wavelength emission setting of 460 nm.
# human Plasma Kallikrein (KLKB1), sequence (P03952 391-638): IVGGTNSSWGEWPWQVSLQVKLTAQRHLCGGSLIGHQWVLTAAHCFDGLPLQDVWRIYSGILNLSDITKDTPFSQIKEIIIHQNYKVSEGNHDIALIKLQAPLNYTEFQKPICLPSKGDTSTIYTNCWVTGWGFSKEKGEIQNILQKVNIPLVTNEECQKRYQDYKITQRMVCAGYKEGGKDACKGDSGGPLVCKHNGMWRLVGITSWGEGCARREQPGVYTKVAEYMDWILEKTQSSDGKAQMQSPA
# human Plasma Kallikrein (KLKB1), sequence (P03952 20-390 partner): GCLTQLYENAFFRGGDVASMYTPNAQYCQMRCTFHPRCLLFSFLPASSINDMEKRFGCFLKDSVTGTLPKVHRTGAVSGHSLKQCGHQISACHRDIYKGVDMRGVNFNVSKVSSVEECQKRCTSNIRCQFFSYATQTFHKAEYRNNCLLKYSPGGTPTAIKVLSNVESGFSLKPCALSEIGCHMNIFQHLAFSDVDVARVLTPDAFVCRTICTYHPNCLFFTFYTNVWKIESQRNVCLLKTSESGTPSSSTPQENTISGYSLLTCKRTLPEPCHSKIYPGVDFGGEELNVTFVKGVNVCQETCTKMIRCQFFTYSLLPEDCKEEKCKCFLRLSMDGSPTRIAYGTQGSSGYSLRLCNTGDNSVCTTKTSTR
row,SMILES,IC50
1,Cc1cnn(Cc2ccc(Cn3cc(C(=O)N[C@@H]4CCc5c4ccnc5N)c(C(F)(F)F)n3)cc2)c1 [Example 15],1 nM
2,Cc1ccc2cc(Cn3cc(C(=O)NC4CCc5nc(N)ccc54)nn3)ccc2n1 (stereo not shown) [Example 7],910 nM
3,C[C@H]1CCN(c2ccc(Cn3cc(C(=O)N[C@@H]4CCc5nc(N)ccc54)c(C(F)(F)F)n3)cn2)C1 [Example 14],40 nM
4,Cc1cnn(Cc2ccc(Cn3cc(C(=O)N[C@@H]4CCc5nc(N)ccc54)c(C(F)(F)F)n3)cc2)c1 [Example 16],18 nM
5,Nc1ccc2c(n1)CCC2NC(=O)c1cnn(Cc2ccc(Cn3cccn3)cc2)c1 (stereo not shown) [Example 6],32 nM
6,Nc1cc2c(cn1)C(NC(=O)c1cn(Cc3ccc(Cn4cccn4)cc3)nn1)CC2 (stereo not shown) [Example 4],790 nM
7,"Cc1ccc2cc(Cn3cc(C(=O)NC4CCCc5nc(N)ccc54)nn3)ccc2n1 (stereo not shown) [Example 1, 1-(2-Methyl-quinolin-6-ylmethyl)-1H-[1,2,3]triazole-4-carboxylic acid (2-amino-5,6,7,8-tetrahydro-quinolin-5-yl)-amide]",900 nM
8,Nc1ccc2c(n1)CCC2NC(=O)c1cn(Cc2ccc(C(F)c3ccon3)cc2)nn1 (stereo not shown) [Example 3],5500 nM
9,CC(C)(O)c1cccn(Cc2ccc(Cn3cc(C(=O)NC4CCc5nc(N)ccc54)nn3)cc2)c1=O (stereo not shown) [Example 9],560 nM
10,"Nc1nccc2c1C(NC(=O)c1cn(Cc3ccc(Cn4cccn4)cc3)nn1)CC2 (stereo not shown) [Example 2, 1-(4-Pyrazol-1-ylmethyl-benzyl)-1H-[1,2,3]triazole-4-carboxylic acid (1-amino-6,7-dihydro-5H-[2]pyrindin-7-yl)-amide]",600 nM
